Source: USRE47141E1, “Methods of treating fibrosis, cancer and vascular injuries” (EWHA University—Industry Collaboration Foundation, priority 2010, dated 2018)
pIC50: −log10 of the molar value. Marks after values point to notes of the source that are not given here.

Legend:
[1] = test system: MMTV/c-Neu mice; test: Anti-metastatic effect on MMTV/c-Neu mice breast cancer model; assay type: in vivo; conditions: for β-casein mRNA expression level in the lung: 43.6 mg/kg intraperitoneally every other day, Example 61 three weeks, Example 3 ten weeks
Method: Anti-metastatic Effect on MMTV/c-Neu mice breast cancer model MMTV/c-Neu female transgenic mice were purchased from Jackson Laboratory (Bar Harbor, Me., USA). Animals were maintained in a temperature-controlled SPF room (22° C.) and supplied with food and water ad libitum. In Experiment 1, Example 61 (43.6 mg/kg) dissolved in saline was given to thirty two-week-old MMTV/c-Neu mice intraperitoneally every other day for three weeks. […] Mice were sacrificed at 24 h after the last dosing, and tissues of mammary tumor and lung were analyzed by hematoxylin and eosin (H&E) staining To analyse β-casein mRNA level in tissues of mammary tumor and lung, total RNAs were isolated from these tissues using TRIzol reagent (Invitrogen Corporation) and RNeasy Mini kit (Qiagen) according to the manufacturer's instruction. The cDNAs were synthesized from 2 μg of total RNAs using random primer (Invitrogen Corporation) by MMLV RTase (Invitrogen Corporation) for 1 h at 37° C. and subjected to PCR amplification using Taq polymerase (Promega) and following gene-specific primers: mouse GAPDH (forward) 5′-[…]-3′ and (reverse) 5′-[…]-3′, mouse β-casein (forward) 5′-[…]-3′ and (reverse) 5′-[…]-3′. Amplified DNA was analyzed by agarose gel electrophoresis.
Activity of MMP-9 and MMP-2 in the primary mammary tumor was measured by gelatin zymography. Tumor tissues from mice (30 mg) was lysed in 500 μL RIPA buffer (50 mM Tris, 150 mM NaCl, 0.1% sodium dodecyl sulfate, 0.5% sodium deoxycholate, 1% NP-40, protease inhibitor without EDTA) for 10-20 min on ice. Lysates were cleared by centrifugation at 13000 rpm at 4° C. for 10 min. Protein content of supernatants was determined using Micro-BCA protein assay kit (Thermo Scientific). Loading samples were prepared by adding loading buffer (0.5 M Tris, pH 6.8, 50% glycerol, 10% SDS, and 1% bromophenol blue solution) into lysates containing 15 μg of total protein. Loading samples were heated at 60° C. for 5 min and separated by electrophoresis on 10% polyacrylamide gel containing 0.2% gelatin. Gel was washed twice with washing buffer [2.5% Triton-X100, 0.05 M Tris-HCl, pH 7.5, and 0.1 M NaCl] for 30 min at room temperature. […] Gel image was obtained using a densitometer LAS-3000 imager (FUJIFILM) in cybergreen mode.

[2] = test system: BALB/c 4T1 xenografted mice; test: Anti-metastatic effect on BALB/c 4T1 xenografted mice model; assay type: in vivo; conditions: Example 3 13.6 or 27.3 mg/kg orally BID, four weeks; Example 2 5, 10, 20, or 40 mg/kg orally; Example 61 43.6 mg/kg intraperitoneally every other day, 2.5 weeks
Method: Female BALB/c mice were purchased from Orient Bio Inc. (Seoul, Korea). Animals were maintained in a temperature-controlled room (22° C.) and supplied with food and water ad libitum. 4T1 cells (1.2×10^4 cells) were suspended in PBS and implanted into the left #4 mammary fat pad of five to six-week-old female BALB/c mice (day 0). In Experiment 1, treatment was started after tumor implantation (day 0). […] In Experiment 2, treatment was started on day 4. […] In Experiment 3, treatment was started on day 4. […] In Experiment 4, 4T1 cells (1×10^4 cells) were suspended in PBS and implanted into the left #4 mammary fat pad of ten-week-old female BALB/c mice (day 0). Treatment was started on day 10. Example 61 (43.6 mg/kg) dissolved in saline was given to mice intraperitoneally every other day for 2.5 weeks. In all Experiments, mice were sacrificed at 24 to 72 h after the last dosing, and 15% India ink solution (Hardy Diagnostics) in PBS was immediately injected into the trachea. […] Number of metastatic nodule was counted on the surface of left lobe of lung, and picture of lung was taken with digital camera. The tumor size was measured using calipers, and the tumor volume was calculated by using the following equation: Tumor volume=(0.5236)×(width)^2×(length)
Either vehicle buffer (4 mM HCl, 1 mg/mL BSA) or TGF-β1 (50 ng/mouse) in vehicle buffer was given to mice intravenously at 2 h before mice were sacrificed. Tumor tissues from mice were lysed in RIPA buffer [50 mM Tris, pH 7.5, 150 mM NaCl, 0.1% sodium dodecyl sulfate, 0.5% sodium deoxycholate, 1% NP-40, 1 mM NaF, 1 mM Na3VO4, 1 mM PMSF, a protease inhibitor cocktail (1 tablet of Roche Diagnostics GmbH protease inhibitor cocktail/10 mL) (Roche)] for 20 min on ice. Lysates were cleared by centrifugation at 13000 rpm at 4° C. for 20 min. Protein content of supernatants was determined using Micro-BCA (bicinchoninic acid) protein assay kit (Thermo Scientific). Lysates containing 20-50 μg total protein were separated by electrophoresis on polyacrylamide gel and then electrophoretically transferred to polyvinylidene difluoride transfer membranes (Millipore, Billerica, Mass., USA). Membranes were blocked with 5% BSA (Sigma-Aldrich) in PBS containing 0.5% Tween-20 (PBST) for 1 h and incubated overnight at 4° C. with one of following antibodies: anti-phospho-Smad2 (Millipore), anti-Smad2/3 (BD Transduction Laboratories, NJ, USA), or anti-β-actin (Sigma-Aldrich) in PBST containing 1% BSA. […] Bound antibodies were detected using Western Blotting Luminol Reagent (SantaCruz Biotechnology). Band intensities were analyzed using a densitometer LAS-3000 imager (FUJIFILM, Tokyo, Japan).

[3] = test system: bile duct-ligated (BDL) rats; test: Anti-fibrotic effect on bile duct-ligated liver fibrosis model; assay type: in vivo; conditions: for Body weight / Organ weight Liver / Organ weight Liver/Body / Organ weight Spleen / Organ weight Spleen/Body: mean ± S.E.
[4] = biological target: ALK5 (Homo sapiens (Human), UniProt P36897); test: Cell-free assay for inhibition of ALK5 kinase phosphorylation; assay type: biochemical; conditions: read-out: IC50 on ALK5 kinase phosphorylation
Method: ALK5 protein was expressed in Sf9 insect cells as human recombinant GST-fusion protein using the baculovirus expression system. Expressed protein was purified by affinity chromatography using GSH-agarose (Sigma-Aldrich). Kinase assay was performed in 96-well FlashPlates™ from Perkin Elmer (Boston, Mass., USA) in a 50 μL reaction volume. The reaction cocktail was pipetted in four steps in the following order: 20 μL of assay buffer (standard buffer), 5 μL of ATP solution in H2O, 5 μL of each test compounds of formula (I) in 10% DMSO, 10 μL of GSK3 (14-27) (200 ng)/10 μL of ALK5 solution (1 ng) (premixed). The reaction cocktail contained 60 mM HEPES-NaOH, pH 7.5, 3 mM MgCl2, 3 mM MnCl2, 3 Na3VO4, 1.2 mM DTT, 50 μg/mL PEG20000, 1 μM [γ-^33P]-ATP (approximately 2.5×10^5 cpm per well), 200 ng/10 μL GSK3 (14-27), and 1 ng/10 μL ALK5. The reaction cocktail was incubated at 30° C. for 60 min. The reaction was stopped with 50 μL of 2% (v/v) H3PO4, and plates were aspirated and washed two times with 200 μL 0.9% (w/v) NaCl. Assay was performed with a BeckmanCoulter Biomek 2000 robotic system. Incorporation of ^33Pi (counting of “cpm”) was determined with a microplate scintillation counter (Microbeta, Wallac).

[5] = test system: SBE-luc and GFAP-luc mice immunized with MOG35-55; conditions: cited from earlier work
[6] = test system: Tramp C2; conditions: mice treated with murine prostate cancer cell line Tramp C2; cited from earlier work
[7] = test system: rats; conditions: cited from earlier work
[8] = test system: UUO rats; conditions: cited from earlier work
[9] = 43.6 mg/kg intraperitoneally every other day for ten weeks, gelatin zymography
[10] = BDL rats, 21.8 mg/kg orally three times per week for four weeks
[11] = BDL rats, 43.6 mg/kg orally three times per week for four weeks
[12] = Sham-operated rats, 43.6 mg/kg orally three times per week for four weeks
[13] = orally three times per week for four weeks, Example 2 5, 10, 20 mg/kg, Example 3 21.8, 43.6 mg/kg
[14] = orally three times per week for four weeks, Western blot

Chain of ALK5 (P36897 34-503): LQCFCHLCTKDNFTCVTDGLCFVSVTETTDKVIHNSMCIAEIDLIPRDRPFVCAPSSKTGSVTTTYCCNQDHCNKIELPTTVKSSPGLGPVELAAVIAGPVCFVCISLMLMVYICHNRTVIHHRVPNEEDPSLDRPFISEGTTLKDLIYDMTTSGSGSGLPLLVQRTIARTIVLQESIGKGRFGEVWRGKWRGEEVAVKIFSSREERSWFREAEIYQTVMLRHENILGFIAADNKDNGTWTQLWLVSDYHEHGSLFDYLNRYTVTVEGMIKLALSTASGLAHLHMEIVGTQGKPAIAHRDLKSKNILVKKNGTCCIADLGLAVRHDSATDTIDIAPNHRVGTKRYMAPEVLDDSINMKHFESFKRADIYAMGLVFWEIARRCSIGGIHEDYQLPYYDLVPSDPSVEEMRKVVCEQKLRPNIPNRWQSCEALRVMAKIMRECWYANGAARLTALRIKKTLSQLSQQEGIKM

Cc1cccc(-c2[nH]c(CNc3cccc(C#N)c3)nc2-c2ccc3ncnn3c2)n1.Cl [Example 61]
number of metastastic lesions in the lung ([1]; 43.6 mg/kg intraperitoneally every other day for three weeks): significantly reduced | β-casein mRNA expression level in the lung [1]: significantly inhibited | number of metastastic nodules on the lung [2]: significantly reduced

Cc1cccc(-c2[nH]c(CNc3ccccc3F)nc2-c2ccc3ncnn3c2)n1.Cl [Example 3]
activity of MMP-2 in the primary mammary tumor [1, 9]: significantly inhibited | activity of MMP-9 in the primary mammary tumor [1, 9]: significantly inhibited | β-casein mRNA expression level in the lung [1]: significantly inhibited | number of metastastic nodules on the lung [2]: significantly reduced | Smad signaling in BDL rat liver (pSmad3) ([3]; 21.8 or 43.6 mg/kg orally three times per week for four weeks, Western blot): inhibited | Body weight [3, 10]: 340 ± 0.6 g | Organ weight Liver [3, 10]: 16.4 ± 0.72**^,## g | Organ weight Liver/Body [3, 10]: 4.85 ± 0.26**^,## % | Organ weight Spleen [3, 10]: 1.30 ± 0.07 g | Organ weight Spleen/Body [3, 10]: 0.39 ± 0.03**^,## % | Body weight [3, 11]: 335 ± 8.4 g | Organ weight Liver [3, 11]: 16.1 ± 0.57**^,## g | Organ weight Liver/Body [3, 11]: 4.84 ± 0.26**^,## % | Organ weight Spleen [3, 11]: 1.19 ± 0.09 g | Organ weight Spleen/Body [3, 11]: 0.36 ± 0.03**^,## % | Body weight [3, 12]: 354 ± 12.2 g | Organ weight Liver [3, 12]: 11.8 ± 0.71 g | Organ weight Liver/Body [3, 12]: 3.34 ± 0.12% | Organ weight Spleen [3, 12]: 0.81 ± 0.04 g | Organ weight Spleen/Body [3, 12]: 0.23 ± 0.01% | BDL-induced histological change ([3]; liver, H&E staining): greatly abolished | body weight loss in BDL rats [3, 13]: recovered | organ (liver and spleen) weight in BDL rats [3, 13]: decreased | serum ALT in BDL rats [3, 13]: improved | serum AST in BDL rats [3, 13]: improved | fibronectin in BDL rat liver [3, 14]: suppressed | vimentin in BDL rat liver [3, 14]: suppressed | α-SMA in BDL rat liver [3, 14]: suppressed

Cc1cccc(-c2[nH]c(CNc3ccc(Cl)c(Cl)c3)nc2-c2ccc3ncnn3c2)n1 [Example 16, N-((4-([1,2,4]triazolo[1,5-a]pyridin-6-yl)-5-(6-methylpyridin-2-yl)-1H-imidazol-2-yl)methyl)-3,4-dichloroaniline]
pIC50 [4]: 8.12

Cc1cccc(-c2[nH]c(CNc3cccc(Cl)c3Cl)nc2-c2ccc3ncnn3c2)n1 [Example 15, N-((4-([1,2,4]triazolo[1,5-a]pyridin-6-yl)-5-(6-methylpyridin-2-yl)-1H-imidazol-2-yl)methyl)-2,3-dichloroaniline]
pIC50 [4]: 7.91

CSc1ccc(NCc2nc(-c3ccc4ncnn4c3)c(-c3cccc(C)n3)[nH]2)cc1 [Example 58, N-((4-([1,2,4]triazolo[1,5-a]pyridin-6-yl)-5-(6-methylpyridin-2-yl)-1H-imidazol-2-yl)methyl)-4-(methylthio)aniline]
pIC50 [4]: 7.40

Cc1cccc(-c2[nH]c(COc3cccc(C#N)c3)nc2-c2ccc3ncnn3c2)n1 [Example 150, 3-((4-([1,2,4]triazolo[1,5-a]pyridin-6-yl)-5-(6-methylpyridin-2-yl)-1H-imidazol-2-yl)methoxy)benzonitrile]
pIC50 [4]: 7.62

Cc1cccc(-c2[nH]c(CNc3cccc(C(N)=O)c3)nc2-c2ccc3ncnn3c2)n1 [Example 66, 3-((4-([1,2,4]triazolo[1,5-a]pyridin-6-yl)-5-(6-methylpyridin-2-yl)-1H-imidazol-2-yl)methylamino)benzamide]
pIC50 [4]: 8.04

Cc1cccc(-c2[nH]c(Cc3cccc(C(N)=O)c3)nc2-c2ccc3nccnc3c2)n1 [IN-1130]
experimental autoimmune encephalomyelitis (EAE) [5]: ameliorates | tumor volume [6]: dramatically reduces | penile curvature [7]: corrects | tunical fibrosis [7]: lessens | renal fibrosis induced by unilateral ureteral obstruction (UUO) [8]: effectively suppresses

COC(=O)c1cccc(NCc2nc(-c3ccc4ncnn4c3)c(-c3cccc(C)n3)[nH]2)c1 [Example 72, Methyl 3-((4-([1,2,4]triazolo[1,5-a]pyridin-6-yl)-5-(6-methylpyridin-2-yl)-1H-imidazol-2-yl)methylamino)benzoate]
pIC50 [4]: 7.78

CC(=O)Nc1ccc(NCc2nc(-c3ccc4ncnn4c3)c(-c3cccc(C)n3)[nH]2)cc1 [Example 76, N-(4-((4-([1,2,4]triazolo[1,5-a]pyridin-6-yl)-5-(6-methylpyridin-2-yl)-1H-imidazol-2-yl)methylamino)phenyl)acetamide]
pIC50 [4]: 7.41

C=Cc1cccc(NCc2nc(-c3ccc4ncnn4c3)c(-c3cccc(C)n3)[nH]2)c1 [Example 37, N-((4-([1,2,4]triazolo[1,5-a]pyridin-6-yl)-5-(6-methylpyridin-2-yl)-1H-imidazol-2-yl)methyl)-3-vinylaniline]
pIC50 [4]: 7.92

Cc1cccc(-c2[nH]c(CNc3ccc(OC(F)(F)F)cc3)nc2-c2ccc3ncnn3c2)n1 [Example 53, N-((4-([1,2,4]triazolo[1,5-a]pyridin-6-yl)-5-(6-methylpyridin-2-yl)-1H-imidazol-2-yl)methyl)-4-(trifluoromethoxy)aniline]
pIC50 [4]: 7.22

Cc1cccc(-c2[nH]c(CNc3ccccc3C(N)=O)nc2-c2ccc3ncnn3c2)n1 [Example 65, 2-((4-([1,2,4]triazolo[1,5-a]pyridin-6-yl)-5-(6-methylpyridin-2-yl)-1H-imidazol-2-yl)methylamino)benzamide]
pIC50 [4]: 7.53
